# Measurements taken from US9238684B2, “SPANX-B polypeptides and their use” (The United States of America, as represented by the …, priority 2009, dated 2016).
# Entries after “also recorded” stand apart in the source; their conditions may differ.
# Experiments:
# [1] = test system: SPANX-B-specific CD8^+ T cell lines; test: IFNγ secretion (ELISA) by CD8+ T cell lines stimulated with antigen-pulsed autologous DCs; format: cell-based, human
# UACC1273 melanoma cells = test: CTL 6-hour 51Cr release assay on UACC1273; format: cell-based, human; settings: SPANX-B-expressing, HLA-A2-positive target; FIGS. 6A-C
# Procedure: (§1) CTL assay and HLA blocking experiments: Tumor cell lines (target cells, 2×10^6) were incubated in 200 μL of fetal bovine serum (FBS) with 200 μCi of Na2^51CrO4 (PerkinElmer, Billerica, Mass.) for 2 hours at 37° C. Cells were washed with RPMI three times and resuspended in cRPMI with 10% FBS at 1×10^5 cells/mL. CTL assay was performed in triplicate in 96-well round bottom plates with 1×10^4/well ^51Cr-labeled target cells. The target cells were co-cultured at indicated ratios with effector cells (peptide-specific CD8^+ T cells) for 6 hours. The specific ^51Cr-release is calculated using formula: ((test sample release−spontaneous release)/(maximum release−spontaneous release))×100). Maximum release is for the target cells alone lysed with 2% Triton X-100.
# HEK293 cells = test: CTL 51Cr release assay on HEK293 cells pulsed with Pep-2; format: cell-based, human; settings: FIGS. 6A-C
# Procedure: as §1
# OVCAR3 cells = test: CTL 51Cr release assay on OVCAR3; format: cell-based, human; settings: HLA-A2-positive, SPANX-B-negative target; FIG. 6D
# Procedure: as §1
# [2] = test system: primary human melanoma cells; test: CTL 51Cr release assay on primary human melanoma cells; format: cell-based
# Procedure: as §1
# [3] = test system: murine anti-SPANX-B antibody; test: ELISA on peptide-coated plates with murine anti-SPANX-B antibody; format: binding; settings: Ab from mice DNA immunized with SPANX-B-expressing plasmid; FIG. 1B
# Procedure: FIGS. 1A-1F are digital images, a graph and a schematic diagram illustrating the specificity of antibody and expression of SPANX-B in human immortalized tumor cell lines. FIG. 1A is a digital image showing ANEA-I0117 antibody recognized SPANX-B expressed in mouse erythroleukemia RL5 cells. Western blotting results are shown with ANEA-I0117 anti-SPANX-B antibody on lysates of RL5 cells (2 μl, 5 μl and 10 μl, respectively) transiently transduced with plasmid expressing SPANX-B (SPANX-B). Control lysates were made from untransduced parental RL5 cells (Control). FIG. 1B is a graph showing murine anti-SPANX-B antibody, which was generated from mice DNA immunized with plasmid expressing SPANX-B, recognized unique SPANX-B-specific insert of SPANX-B (encoded in Pep-G1 and Pep-2 peptides), ELISA assay on plates coated with various peptides that are depicted in FIG. 1C. […] FIG. 1D is a digital image showing the expression of SPANX-B protein evaluated by Western blotting with ANEA-I0117 Ab (1:5000) in lysates of cell lines, such as HEK293 (HEK), Jurkat, CRL 7002, UACC1273, 938 Mel, CCRF-CEM (CEM), and normal human donor PBMC (upper panel). The blot was stripped and hybridized with anti-actin antibody (lower panel). FIGS. 1E and 1F are digital images obtained from an immunohistochemistry and immunofluorescent assay, respectively, of melanoma (UACC1273) and ovarian carcinoma (2008 and OVCAR3) cell lines. The cells were stained with ANEA-I0117 Ab (right and bottom panels in FIG. 1E and FIG. 1F, respectively); and control IgG (left and upper panels in FIG. 1E and FIG. 1F, respectively).
# SPANX-B can be often found in the list of highly expressed genes in microarray study of human tumors, including hematological malignancies and breast cancer (see, for example, Minn et al., Nature 436(7050):518-24, 2005). To confirm this, expression was tested using two antibodies, a rabbit 3ANEA Ab and mouse SPANX-B Ab. […] The second SPANX-B Ab was produced from mice DNA immunized with SPANX-B-expressing plasmid. […] In contrast, it reacted with a second peptide Pep-2 that only represented unique for SPANX-B insert of Pep-G1 (FIGS. 1B and C).
# SPANX-B = test: DNA immunization of mice, serum ELISA on peptide-coated plates; format: in vivo; settings: plates coated with peptide 5 μg/ml; FIG. 7
# Procedure: Mice were intradermally immunized twice with 25 μg plasmid DNA constructs including MIP-3α-SPANX-B. Sera were tested for SPANX-B antibodies by ELISA assay in 96-well plates coated with the indicated peptides (5 μg/ml). […] The other was near the N-terminus, encoded by Pep-G1 (SEQ ID NO: 14) and Pep-2 (SEQ ID NO: 2) and Pep-3 (SEQ ID NO: 3).
sequence,measurement,setting,value
EANEANKTM (Synthetic peptide Pep-2),recognition of SPANX-B protein-pretreated DCs by CD8+ T cells generated with peptide-pulsed DCs,[1],also recognized SPANX-B protein-pretreated DCs
same,IFNγ secretion by SPANX-B-specific CD8+ T cells on stimulation with pulsed DCs,"[1]; irradiated autologous DCs, lines generated with SPANX-B protein, FIG. 5A",secreted IFNγ
same,lysis of UACC1273 melanoma cells by CD8+ T cell lines generated to the antigen,UACC1273 melanoma cells,killed UACC1273 melanoma cells
same,lysis of HLA-A2-expressing HEK293 cells pulsed with Pep-2 by CD8+ T cell lines generated to the antigen,"HEK293 cells; HEK-A2, pulsed with 1 μg/ml Pep-2",lysed HLA-A2-expressing HEK293 cells that were pulsed with Pep-2
same,lysis of HLA-A2-negative parental HEK293 cells by CD8+ T cell lines generated to the antigen,HEK293 cells; HEK,did not kill
same,"lysis of OVCAR3 cells by CD8+ T cells, with or without Pep-2 pulsing",OVCAR3 cells,"could not lyse HLA-A2-positive OVCAR3 cells that did not express SPANX-B, unless pulsed with Pep-2"
same,lysis of HLA-A2-expressing primary melanoma tumors by CD8+ lines generated to the antigen,"[2]; Tc526, Tc624 and Tc2492",recognized and lysed
same,lysis of HLA-A2-negative primary melanoma tumors by CD8+ lines generated to the antigen,"[2]; Tc2547 and Tc938, FIG. 6E",not affected
same,recognition of peptide by mouse SPANX-B Ab (ELISA),[3],but not other region-specific peptides; also recorded: reacted with
same,B cell epitope recognized by sera of immunized mice (ELISA),SPANX-B,Immunodominant B cell epitopes
